Laboratory results taken from ChEMBL document CHEMBL1201862, “PubChem BioAssay data set” (2004).
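Interpolation was linear, between the two tested concentrations surrounding the appropriate level; five concentrations were tested over 48 hours in 96-well plates. The concentration for 50% growth inhibition is given as GI50.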 The source made the active and inactive calls. Cut-off read from the data, not from the text of the source: active = GI50 up to about 1.1 µM and inactive = higher.

Columns and labels:
Assay in all cases: growth of human tumour cells (NCI), 48 h
UACC-257 = tested on: UACC-257
SK-MEL-5 = tested on: SK-MEL-5
SK-OV-3 = tested on: SK-OV-3
NCI/ADR-RES = tested on: NCI/ADR-RES
IGROV-1 = tested on: IGROV-1
SR = tested on: SR
786-0 = tested on: 786-0
UO-31 = tested on: UO-31
HCC 2998 = tested on: HCC 2998
Hs-578T = tested on: Hs-578T
CCRF-CEM = tested on: CCRF-CEM
OVCAR-5 = tested on: OVCAR-5
TK-10 = tested on: TK-10
SF-539 = tested on: SF-539
SNB-19 = tested on: SNB-19
MCF7 = tested on: MCF7
Malme-3M = tested on: Malme-3M
SF-268 = tested on: SF-268
LOX IMVI = tested on: LOX IMVI
MDA-MB-231 = tested on: MDA-MB-231

Measured: GI50

COc1ccc(-c2cn3c(n2)sc2cc(C)ccc23)cc1
inactive: UACC-257 3.9 µM | SK-MEL-5 3.65 µM | SK-OV-3 22.1 µM | NCI/ADR-RES > 100 µM | IGROV-1 7.19 µM | SR 4.86 µM | 786-0 18.3 µM | UO-31 42.3 µM | HCC 2998 12.5 µM | Hs-578T 18.2 µM | CCRF-CEM 19.8 µM | OVCAR-5 43.2 µM | TK-10 22.1 µM | SF-539 13.6 µM | SNB-19 12.5 µM | MCF7 4.85 µM | Malme-3M 37.8 µM | SF-268 22.8 µM | LOX IMVI 17.5 µM | MDA-MB-231 15.5 µM

CSc1ncnc2c1cnn2Cc1cn(COCCO)nn1
inactive: UACC-257 > 100 µM | SK-MEL-5 46.8 µM | SK-OV-3 47.6 µM | NCI/ADR-RES > 100 µM | IGROV-1 74.8 µM | SR 12.5 µM | 786-0 18.7 µM | UO-31 > 100 µM | HCC 2998 32.2 µM | Hs-578T > 100 µM | CCRF-CEM 43.5 µM | OVCAR-5 88.5 µM | TK-10 > 100 µM | SF-539 > 100 µM | SNB-19 > 100 µM | MCF7 43.3 µM | Malme-3M > 100 µM | SF-268 > 100 µM | LOX IMVI 80.7 µM | MDA-MB-231 > 100 µM
